Test results from patent EP0632041A1, “New morphine derivatives having improved analgesic and narcotic properties” (priority 1993, dated 1995).
Read-outs that look alike come from different tables or passages of the source.

Key:
[1] = test system: rats; test: reflex inhibition and antinociception after intravenous and intrathecal injection in rats; format: in vivo; conditions: for antinociceptive efficacy: after intrathecal injection; for reflex inhibitory potency: intravenous and intrathecal injection
[2] = cited from earlier work
[3] = compared with prediction and with morphine; cited from earlier work
[4] = biological target: µ receptors (Homo sapiens, UniProt P35372); conditions: binding studies; cited from earlier work
[5] = biological target: δ receptors (Homo sapiens, UniProt P41143); conditions: binding studies; cited from earlier work
[6] = biological target: κ receptors (Homo sapiens, UniProt P41145); conditions: binding studies; cited from earlier work
[7] = more potent than morphine; cited from earlier work
[8] = test system: mice; conditions: cited from earlier work
[9] = test system: homogenate of bovine caudate nucleus; conditions: cited from earlier work
[10] = more potent than morphine; cited from earlier work; remark: listed apart in the source
[11] = pH of 7.4; relative to morphine; cited from earlier work

Sequence of δ receptors (P41143 whole entry, looked up): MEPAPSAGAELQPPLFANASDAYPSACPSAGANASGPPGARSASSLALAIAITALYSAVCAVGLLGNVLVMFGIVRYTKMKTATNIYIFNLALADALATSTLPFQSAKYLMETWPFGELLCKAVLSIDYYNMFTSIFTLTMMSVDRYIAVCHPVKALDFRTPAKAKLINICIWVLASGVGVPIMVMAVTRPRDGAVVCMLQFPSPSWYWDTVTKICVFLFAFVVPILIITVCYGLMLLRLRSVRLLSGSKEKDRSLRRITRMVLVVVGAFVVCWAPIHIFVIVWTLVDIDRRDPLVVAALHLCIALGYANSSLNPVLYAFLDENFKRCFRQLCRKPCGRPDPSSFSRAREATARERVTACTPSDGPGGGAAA
Sequence of µ receptors (P35372 whole entry): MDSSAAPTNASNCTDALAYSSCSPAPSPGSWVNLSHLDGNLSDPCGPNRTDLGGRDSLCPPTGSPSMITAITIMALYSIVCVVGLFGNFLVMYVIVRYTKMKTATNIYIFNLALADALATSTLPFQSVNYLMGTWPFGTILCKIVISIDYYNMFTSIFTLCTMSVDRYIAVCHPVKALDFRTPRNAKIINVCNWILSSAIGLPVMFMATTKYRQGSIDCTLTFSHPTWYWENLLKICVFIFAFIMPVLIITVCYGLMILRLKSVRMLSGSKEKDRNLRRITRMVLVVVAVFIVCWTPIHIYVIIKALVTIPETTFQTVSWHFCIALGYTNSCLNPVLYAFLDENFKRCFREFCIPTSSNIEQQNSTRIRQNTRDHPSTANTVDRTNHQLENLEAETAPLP
Sequence of κ receptors (P41145 whole entry, looked up): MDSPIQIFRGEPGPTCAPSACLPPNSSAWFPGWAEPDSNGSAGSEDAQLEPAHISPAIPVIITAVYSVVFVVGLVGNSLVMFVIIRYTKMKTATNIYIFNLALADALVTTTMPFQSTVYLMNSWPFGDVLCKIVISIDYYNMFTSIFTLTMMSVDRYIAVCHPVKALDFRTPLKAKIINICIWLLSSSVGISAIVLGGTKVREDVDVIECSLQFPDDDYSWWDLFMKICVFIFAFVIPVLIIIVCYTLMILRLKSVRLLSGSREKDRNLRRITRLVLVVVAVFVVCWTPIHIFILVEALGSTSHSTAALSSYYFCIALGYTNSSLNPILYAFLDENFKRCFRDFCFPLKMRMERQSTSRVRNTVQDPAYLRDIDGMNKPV

Structure (SMILES): COc1ccc2c3c1O[C@H]1[C@@H](NC(=O)c4cccnc4)CC[C@H]4[C@@H](C2)N(C)CC[C@@]341 [7,8-dihydro-6α-nicotinoylaminocodeine]
- antinociceptive efficacy [1]: long-lasting antinociceptive efficacy
- reflex inhibitory potency [1]: strong reflex inhibitory potency

Structure (SMILES): CN1CC[C@]23c4c5ccc(O)c4O[C@H]2[C@@H](NC(=O)c2cccnc2)CC[C@H]3[C@H]1C5 [7,8-dihydro-6α-nicotinoylaminomorphine]
- antinociceptive efficacy [1]: long-lasting antinociceptive efficacy
- reflex inhibitory potency [1]: strong reflex inhibitory potency

Structure (SMILES): CN1CC[C@]23c4c5ccc(O[C@@H]6O[C@H](C(=O)O)[C@@H](O)[C@H](O)[C@H]6O)c4O[C@H]2[C@@H](O)C=C[C@H]3[C@H]1C5 [Example M-3-G]
- effect of microinjection ([2]; microinjection directly into the periaquaductal grey): without effect
- lipophilicity [3]: far more lipophilic than predicted
- affinity, µ receptors [4]: poor affinity
- affinity, δ receptors [5]: poor affinity
- affinity, κ receptors [6]: poor affinity

Structure (SMILES): CN1CC[C@]23c4c5ccc(O)c4O[C@H]2[C@@H](O[C@@H]2O[C@H](C(=O)O)[C@@H](O)[C@H](O)[C@H]2O)C=C[C@H]3[C@H]1C5 [Example M-6-G, morphine-6-glucuronide]
- antinociceptive potency relative to morphine, writhing [7]: 45 fold
- analgesic potency relative to morphine ([8]; given intrathecally): 90 fold
- analgesic potency relative to morphine ([8]; given intravenously): 650 fold
- analgesic effectiveness at the level of the spinal cord versus supraspinally ([8]; spinal cord compared with supraspinal): approximately 5 fold
- analgesia, effect relative to morphine ([8]; subcutaneous administration, mice): approximately twice
- ability to displace ³H-naloxone [9]: comparable to that of morphine
- seizure activity ([2]; high doses): profound seizure activity
- potency relative to morphine following microinjection ([2]; microinjection into the periaquaductal grey): up to 20 fold
- antinociceptive potency relative to morphine, tail-flick [10]: 61 fold
- lipophilicity [3]: far more lipophilic than predicted
- affinity, δ receptors [5]: not

Structure (SMILES): CN1CC[C@]23c4c5ccc(O)c4O[C@H]2[C@@H](O)C=C[C@H]3[C@H]1C5 [morphine]
- analgesic potency at both levels of the neuraxis ([8]; mouse, in vivo): equipotent

Structure (SMILES): CN1CC[C@]23c4c5ccc(OC(=O)c6cccnc6)c4O[C@H]2[C@@H](OC(=O)c2cccnc2)C=C[C@H]3[C@H]1C5 [nicomorphine, 3,6-dinicotinoyl-morphine]
- lipid solubility higher than that of morphine [11]: about 10 fold
